Reference: paper PMC12035931, “Biologically active withanolides from Physalis peruviana” (Pharmaceutical Biology, 2025)
Structures can show the parent of a compound that is named as a salt. Where two headings read alike, the source gives them in different places.

Key:
[1] = tested on: TNF-α-induced NF-κB activity; experiment: Inhibition of TNF-α-activated NF-κB, luciferase reporter assay in HEK293 cells; type: cell-based, human; details: for inhibition at 50 µM: read-out: NF-κB assay % inhib.
Text: To study the inhibition of tumor necrosis factor-alpha (TNF-α)-induced activation of nuclear factor-kappa B (NF-κB), human embryonic kidney 293 cells (HEK293) stably transfected with an NF-κB-responsive luciferase reporter construct (Cat. No. RC0014, Panomics, Fremont, CA, USA) were utilized, following previously described protocols (Kondratyuk et al. [2012]). This cell line incorporates a chromosomally integrated luciferase reporter, which produces luciferase enzyme upon NF-κB activation. The enzyme reacts with its substrate to produce a luminescent signal, detectable via luminometry. Cells were seeded at a density of 2 × 10^4 cells/mL in 96-well plates and cultured in Dulbecco’s Modified Eagle Medium (DMEM, Cat. No. D6429, Sigma-Aldrich, Saint Louis, MO, USA) supplemented with 10% fetal bovine serum (FBS, Cat. No. A5670701, Gibco™, Thermo Fisher Scientific, Waltham, MA, USA). The medium also contained 100 µg/mL streptomycin sulfate and 100 IU/mL penicillin G (Cat. No.15140 Gibco BRL, Grand Island, NY, USA). The cells were then treated with varying concentrations of the test sample and stimulated with recombinant human TNF-α (2 ng/mL, Cat. No. HZ-1014, Proteintech Group, Inc. Rosemont, IL, USA).
Following a 6-hour incubation, the cells were rinsed with phosphate buffer saline (PBS), lysed with 40 μL of 1X Reporter Lysis Buffer (Cat. No. E2661, Promega, Madison, WI, USA), and subjected to a freeze-thaw cycle (−80 °C/37 °C). Luminescence, generated by the luciferase reaction, was quantified using the Luc assay system (Cat. No. N1610, Promega, Madison, WI, USA) and a LUMIstar Galaxy luminometer (BMG, Offenburg, Germany).

[2] = tested on: human embryonic kidney 293 cells (HEK293); experiment: Cell survival in the NF-κB assay; type: cell-based
[3] = tested on: NO production in LPS-activated murine macrophage RAW 264.7 cells; experiment: cells; type: cell-based, mouse; details: for inhibition at 50 µM / IC50: Mus musculus; for inhibition at 50 µM: read-out: Nitrite assay % inhib.
Method: The inhibition of nitric oxide (NO) production in lipopolysaccharide (LPS)-stimulated murine macrophage RAW 264.7 cells was evaluated following previously described methods (Min et al. [2009]). RAW 264.7 cell line was purchased from ATCC (Cat. No. TIB-71, Manassas, VA, USA) and cultured in Dulbecco’s modified Eagle’s medium (DMEM, Cat. No. 12800-082, Invitrogen, Massachusetts, USA) supplemented with 10% heat-inactivated fetal bovine serum (FBS, Cat. No. 26140, Gibco BRL Co, Grand Island, NY, USA), 100× penicillin G and streptomycin (Cat. No.11074440001, Sigma-Aldrich, Saint Louis, MO, USA) and 2 mM L-glutamine (Cat. No. 25030, Gibco BRL Co, Grand Island, NY, USA). Cells were seeded at 10 × 10^5 cells per well in 96-well plates and incubated for 24 h at 37 °C in a humidified atmosphere containing 5% CO2.
(§1) Test compounds were dissolved in phenol red-free DMEM (Cat. No. 12-917 F, Lonza, Massachusetts, USA) and added to the cells as a pretreatment for 30 min. The cells were then exposed to LPS (1 µg/mL, Cat. No. L-2762, Sigma-Aldrich, Saint Louis, MO, USA) for 20 h. Nitric oxide levels were quantified using the Griess reagent, which consists of a 1:1 (v/v) mixture of 1% sulfanilamide (Cat.No. A13001, Alfa Aesar, Massachusetts, USA) in H3PO4 and N-(1-naphthyl)ethylenediamine dihydrochloride (Cat. No. 102397, MP Biomedicals, USA). A standard curve was generated using sodium nitrite (Cat. No. 44227, Alfa Aesar, Massachusetts, USA), and IC50 values were calculated using Table Curve 2D software (Version 4.07, AISN Software Inc., Richmond, VA, USA). Also, a sulforhodamine B (SRB, Cat. No. S9012, Sigma-Aldrich, Saint Louis, MO, USA) assay was performed to assess the cytotoxic effects of the test compounds on RAW 264.7 cells.

[4] = tested on: RAW 264.7 cells; experiment: SRB cytotoxicity / survival of RAW 264.7 cells in the nitrite assay; type: cell-based, mouse; details: for Nitrite assay % surv.: % survival at a concentration of 50 μM, RAW 264.7; for cytotoxicity in NO assay: RAW 264.7 cells
Method: as §1

[5] = Homo sapiens, HEK293, % inhibition at a concentration of 50 μM, TNF-α 2 ng/mL, 6 h
[6] = Homo sapiens, TNF-α-induced NF-κB luciferase, HEK293, read-out: NF-κB assay IC50
[7] = RAW264.7, read-out: Nitrite assay IC50
[8] = Homo sapiens, HEK293, read-out: NF-κB assay IC50
[9] = % survival at a concentration of 50 μM
[10] = RAW264.7, % inhibition of NO at 50 μM, LPS 1 µg/mL, 20 h
[11] = RAW264.7, LPS-activated RAW 264.7 cells, read-out: Nitrite assay IC50
[12] = acetate versus parent, from IC50

Structure (SMILES)	inhibition at 50 µM [1, 5] [%]	IC50 [1, 6] [µM]	NF-κB assay % surv. ([2]; human, 6 h, 50 µM) [%]	inhibition at 50 µM ([3]; RAW264.7, 20 h) [%]	IC50 [3, 7] [µM]	Nitrite assay % surv. [4] [%]	cytotoxicity in NO assay [4]	inhibition at 50 µM ([1]; Homo sapiens, HEK293, 6 h) [%]	IC50 [1, 8] [µM]	NF-κB assay % surv. [2, 9] [%]	inhibition at 50 µM [3, 10] [%]	IC50 [3, 11] [µM]	NF-κB activity enhanced relative to parent compound [1, 12]	NO inhibitory activity ([3]; compared with positive control L-NMMA / within the series)	NF-κB activity diminished relative to parent compound [1, 12]	IC50 ([1]; TNF-α-induced NF-κB luciferase, HEK293, read-out: NF-κB assay IC50) [µM]
CC1=C(C)C(=O)OC(C(C)(O)C2(O)CCC3(O)C4CC(O)C5(O)C(O)C(O)CC(=O)C5(C)C4CCC32C)C1 [Compound 1, (20S,22R)-3α,4β,5α,6β,14α,17β,20β-heptahydroxy-1-oxowitha-24-ene-26,22-olide]	93.4 ± 1.2	0.01 ± 0.01	100 ± 24.5	82.4 ± 1.1	13.3 ± 0.2	100 ± 1.1	without significant cytotoxicity	–	–	–	–	–	–	–	–	–
CC1=C(C)C(=O)OC(C(C)(O)C2(O)CCC3(O)C4CC(Cl)C5(O)C(O)C=CC(=O)C5(C)C4CCC32C)C1 [Compound 2, (20S,22R)-4β,5β,14α,17β,20α-pentahydroxy-6α-chloro-1-oxowitha-2,24-diene-22,26-olide]	97.4 ± 1.1	0.06 ± 0.02	100.0 ± 14.4	99.4 ± 0.1	3.3 ± 0.3	96.1 ± 3.2	without significant cytotoxicity	–	–	–	–	–	–	–	–	–
CC(=O)OC1C=CC(=O)C2(C)C3CCC4(C)C(O)(CCC4(O)C(C)(O)C4CC(C)=C(C)C(=O)O4)C3CC(Cl)C12O (stereo not drawn) [Compound 2a]	92.2 ± 0.6	1.1 ± 0.42	12.3 ± 7.58	99.2 ± 2.6	8.7 ± 0.6	93.2 ± 2.3	without significant cytotoxicity	–	–	–	–	–	–	–	–	–
CO[C@H]1CC(=O)[C@]2(C)C3CC[C@@]4(C)C(=C3C[C@H]3O[C@]32[C@H]1O)CC[C@@]4(O)[C@@](C)(O)C1CC(C)=C(C)C(=O)O1 (stereo partly drawn) [Compound 4, physalactone]	–	–	–	–	–	90.7 ± 5.0	without significant cytotoxicity	66.7 ± 3.9	11 ± 2.3	100.0 ± 16.6	97.9 ± 2	1.8 ± 0.17	–	–	–	–
CO[C@H]1CC(=O)[C@]2(C)C3CC[C@@]4(C)C(=C3C[C@H]3O[C@]32[C@H]1OC(C)=O)CC[C@@]4(O)[C@@](C)(O)C1CC(C)=C(C)C(=O)O1 (stereo partly drawn) [Compound 4a]	–	–	–	–	–	40.3 ± 4.1	–	88 ± 1.3	0.33 ± 0.1	77.7 ± 5.3	99.8 ± 0.3	0.24 ± 0.01	over 30 fold	most active	–	–
CC1=C(C)C(=O)OC([C@](C)(O)[C@]2(O)CC[C@@]3(O)C4C[C@@H](O)C5=CC=CC(=O)[C@]5(C)C4CC[C@]23C)C1 (stereo partly drawn) [Compound 5, withaperuvin C]	85 ± 4.4	5.6 ± 2.1	100.0 ± 8.0	99.2 ± 0.7	2.4 ± 0.2	79.3 ± 1.2	without significant cytotoxicity	–	–	–	–	–	–	–	–	–
CC(=O)O[C@@H]1CC2C(CC[C@]3(C)[C@](O)([C@@](C)(O)C4CC(C)=C(C)C(=O)O4)CC[C@@]23O)[C@@]2(C)C(=O)C=CC=C12 (stereo partly drawn) [Compound 5a, withaperuvin C acetate]	78.3 ± 3	2.4 ± 1.7	47.0 ± 6.0	99 ± 0.3	1.8 ± 0.1	98.8 ± 1.4	without significant cytotoxicity	–	–	–	–	–	–	–	–	–
CC(=O)OC1C[C@H](O)CC2=CCC3C4CCC([C@@](C)(O)[C@H](O)C[C@@H]5COC(=O)[C@@]5(C)O)[C@@]4(C)CCC3[C@]21C (stereo partly drawn) [Compound 6, perulactone C]	56.1 ± 3.9	1.1 ± 0.48	36.5 ± 1.9	84.2 ± 3.7	11.8 ± 0.3	95.3 ± 11.0	without significant cytotoxicity	–	–	–	–	–	–	–	–	–
CC(=O)OC1C[C@H](OC(C)=O)CC2=CCC3C4CCC([C@@](C)(O)[C@@H](C[C@@H]5COC(=O)[C@@]5(C)O)OC(C)=O)[C@@]4(C)CCC3[C@]21C (stereo partly drawn) [Compound 6a]	77.4 ± 7.3	10.5 ± 2.55	21.8 ± 0.8	20.6 ± 3	–	92.0 ± 5.0	–	–	–	–	–	–	–	–	about 10 fold	–
CC1=C(CO)CC(C(C)(O)C2(O)CCC3(O)C4CC(O)C5(O)CC=CC(=O)C5(C)C4CCC32C)OC1=O (stereo not drawn) [Compound 7, phyperunolide B]	41 ± 6.9	–	81.6 ± 8.4	7.4 ± 3.5	–	100.0 ± 14.1	–	–	–	–	–	–	–	–	–	–
CC1=C(C)C(=O)OC(C(C)(O)C2(O)CC(O)C3(O)C4CC(O)C5(O)CC=CC(=O)C5(C)C4CCC32C)C1 (stereo not drawn) [Compound 8, coagulin H]	70.2 ± 8.1	8.9 ± 1.1	82.2 ± 3.9	67.1 ± 2.2	16.7 ± 0.4	100.0 ± 6.3	–	–	–	–	–	–	–	–	–	–
[H]/N=C(/NC)NCCC[C@H](N)C(=O)O [L-NMMA, L-N^G-Monomethyl arginine citrate, reference compound]	–	–	–	–	–	–	–	–	–	–	–	23.5 ± 3.4	–	–	–	–
Cc1ccc(S(=O)(=O)N[C@@H](Cc2ccccc2)C(=O)CCl)cc1 [TPCK, Nα-tosyl-L-phenylalanine chloromethyl ketone, reference compound]	–	–	–	–	–	–	–	–	–	–	–	–	–	–	–	7.08 ± 1.72
